Laboratory results taken from patent publication US20090263410A1, “USE OF TGF-B1 INHIBITOR PEPTIDES IN THE PREPARATION OF AN IMMUNE RESPONSE MODULATING AGENT” (Proyecto De Biomedicina Cima, S.L., priority 2005, published 2009).

What was measured:
Type in all cases: in vivo, BALB/c mice
CT26 cells [1] = assay: Pulmonary metastasis model (intravenous CT26), survival; settings: 5×10^5 CT26 i.v. on day 10; 50 μg AH1 in FIA s.c. day 0; p144 50 μg i.p. alternate days, days 4-20 or 10-20
From the text: It is speculated that the neutralization of TGF-β1, once the immune response has been induced, could have a beneficial effect on the evolution thereof.
It is known from previous experience that immunization with only DTc AH1 produced a certain delay in the appearance of tumours after the intravenous administration of CT26 cells. For this reason, in a survival experiment, the inclusion of p144 was compared at different times after immunization with AH1. Thus, the animals in group (i) just received the administration of CT26 cells, the animal groups (ii), (iii) and (iv) were immunized on day 0 by subcutaneous route with 50 μg of AH1 in FIA (Freund's incomplete adjuvant) and they were then administered 5×10^5 CT26 cells by intravenous route on day 10. Group (iii) further received 50 μg of p144 in 500 μl of PS (physiological serum) by intraperitoneal route on alternate days between days 4 and 20. Group (iv), as with group (iii), received 50 μg of p144 in 500 μl of PS by intraperitoneal route on alternate days, only between days 10 and 20.

CT26 cells [2] = assay: Subcutaneous CT26 tumour model after AH1 immunization; settings: 50 μg AH1 day 0; 5×10^5 CT26 s.c. day 10; day 10-30 PS or 50 μg p144 every 48 hours i.p.
Experimental: Next, the effect of p144 was studied on a tumour progression model which was less aggressive than the intravenous administration of CT26. In this new model, mice were immunized with 50 μg of AH1 on day 0 and ten days later they were administered 5×10^5 CT26 cells by subcutaneous route. Furthermore, with the aim of testing the effect of blocking TGF-β1 on protection against CT26 tumour cells, another two groups of mice (groups 2 and 3) were treated on alternate days by intraperitoneal route between days 10-30 with 50 μg of p144.

RAd-LacZ = assay: Induction of anti-RAd LacZ antibodies (ELISA) after immunization with heat-inactivated adenovirus
Experimental: To analyse the immunomodulating effect of peptide p144 on the humoral response, female BALB/c mice (Harlan, Barcelona) were used, of between 6 and 8 weeks old. For the induction of specific antibodies, recombinant adenovirus (RAd-LacZ) inactivated by heat in a bath at 100° C. for 10 minutes was inoculated.
Three mice were immunized per group, by the intraperitoneal of a mixture of 200 μl which contained 1×10^8 pfu of the inactivated RAd-LacZ adenovirus, physiological serum (PS) or with […] of peptide p144, all emulsified in Freund's complete adjuvant (FCA) in a 1:1 volumetric ratio as indicated in table M4. Thirty days after the first immunization, the animals were reimmunized with the same mixture, but emulsified in Freund's incomplete adjuvant (FIA). Blood samples were taken from the retroorbital plexus on days 15 and 45 to quantify the anti-adenovirus antibodies generated in each animal.
In order to study the possible induction of antigen intolerance in the mice treated with p144, on day 50 after the I^st injection, the mice were inoculated intravenously with 4×10^8 pfu of active RAd-LacZ in 100 μl of RPMI-1640, including a new group of mice (cont iv), which had only received the intravenous dose of active LacZ adenovirus. Blood samples were taken after 7 days in all groups. Next, the animals were sacrificed to include liver samples in OCT® (Tissue-Tek®, SAKURA, the Netherlands) to the subsequent evaluation of LacZ expression in the liver.
The detection of antibodies in serum against RAd-LacZ was performed by ELISA assays using Maxisorp® flat-bottomed 96-well plates (Nunc, Roskilde, Denmark), based on the streptavidin-biotin system using 2,2′-azino-bis-3-ethylbenzthiazoline-6-sulphonic acid (ABTS) as developer. The plates were incubated throughout the night at 4° C. with 50 μl per well of a solution of 75 μl of RAd-LacZ 10^10 pfu/ml in 10 ml 0.1 M Na2CO3 (pH=10.5). […] 100 μl per well were added and after one hour the plate was read at 405 nm in a Multiskan Plus MKII reader (Labsystem, Helsinki, Finland).

Substance: p144: peptide inhibiting TGF-β1 whose amino acid sequence corresponds to SEQ ID NO: 1 (TSLDASIIWAMMQN; Synthetic Construct from human TGB-Beta1 type III receptor.Domain730-743)
- survival / mortality (CT26 cells [1]): reinforces the survival effect
- Animals protected on day 50 (CT26 cells [2]): 4/10
- antibody titer after intravenous infection with active RAd LacZ (RAd-LacZ; 7 days after 4×10^8 pfu RAd LacZact i.v., no p144 at challenge, versus group immunized without p144): approximately equalled
- anti-RAd LacZ antibody production after first immunization (RAd-LacZ; day 15, RAd LacZinact in presence or absence of p144, ELISA): no quantifiable effect
- antibody titer against RAd LacZ after second immunization (RAd-LacZ; p144 50 μg in immunization mixture, versus inactivated RAd LacZ only): clearly lower
